Measurements as given in patent US11155559B2, “Sulfonyl-substituted isoquinolines as inhibitors of RHO kinase and hERG potassium channel activity” (CHINA RESOURCES PHARMACEUTICAL HOLDINGS COMPANY LIMITED, priority 2017, dated 2021).
pIC50: −log10 of the molar value.

What was measured:
hERG potassium channel = hERG potassium channel (Homo sapiens, UniProt Q12809); assay: hERG experiment (QPatch HTX whole-cell, CHO-hERG cells); assay type: cell-based; conditions: room temperature, tested at 0.24 to 30.00 μM, read-out: hERG inhibitory activity (IC50)
Experimental: The cells stably expressing hERG potassium channel used in the experiment were derived from CHO-hERE of Aviva Biosciences, CHO-hERG was cultured under 5% CO2 at 37° C. hERGQPatch^HTX experiments were performed at room temperature. QPatch AssaySoftware 5.2 (Sophion Bioscience) software was used to establish whole-cell protocols, voltage stimulation protocols and compound detection protocols. First, the voltage stimulation was repeated for 30 times, this section was used as the baseline area for subsequent analysis, then 5 μL extracellular fluid was added and repeated three times. The effect concentrations of each compound were added one after the other, repeating three times by the addition of 5 μL volume. The cells were incubated at each test concentration for at least 5 mins. During the entire recording process, each indicator must meet the data analysis acceptance criteria, if the criterion is not met, the cell will not be counted in the analysis range, and the compound will be tested again, the above recording process is automatically operated by Qpatch analysis software. […] In each complete current record, based on the percentage of peak current in the negative control group, the percentage inhibition of the effect concentration of each compound can be calculated. […]

[1] = test system: bleomycin-induced rat pulmonary fibrosis; assay: Pharmacodynamics in rats: bleomycin-induced unilateral (left lung) pulmonary fibrosis model; assay type: in vivo, SD rats; conditions: for Percentage of pulmonary fibrosis score vs. model group (FIG. 2): Ashcraft score, boundary at 3 (3 or below vs. 4 or above)
Experimental: Animals in each group started to be administered orally by gavage on the 8th day of modeling for a total of 14 days. All animals were euthanized the next day after the last administration, and the left lung was taken, and the same amount of formalin solution was infused into the lungs, the lung fibrosis score was analyzed by weighing and lung pathology.
Masson Trichrome staining was used for pathological evaluation of pulmonary fibrosis lesion area, pulmonary fibrosis pathology score, and fibrosis grade parameters for left lung pulmonary fibrosis lesions. […] (FIG. 2).

ROCK protein kinase = assay: Evaluation of ROCK protein kinase inhibitory activity in vitro (33P-ATP filter-binding); assay type: biochemical; conditions: 1 nM ROCK, 20 μM Long S6 Kinase substrate peptide, room temperature, two hours
Experimental: Evaluation of ROCK Protein Kinase Inhibitory Activity In Vitro
Experimental object: detecting the inhibitory IC50 value of ROCK protein kinase of the compounds.
Assay buffer solution: 20 mM Hepes (pH 7.5), 10 mM MgCl2, 1 mM EGTA, 0.02% Brij35, 0.02 mg/ml BSA, 0.1 mM Na3VO4, 2 mM DTT, 1% DMSO
ROCK protein kinase substrate Long S6 Kinase substrate peptide was added to the freshly prepared buffer solution at a concentration of 20 μM. Then 1 nM ROCK protein kinase was added and stirred evenly. […] After pre-incubating at room temperature for 20 minutes, ^33P-ATP (radiation intensity 10 μCi/μL) was added to initiate the reaction and the reaction was carried out at room temperature for two hours. […] The Filter-Binding method was used to detect radiation intensity.
The protein kinase inhibitory activity of the compound was expressed as the residual protein kinase activity of a relatively blank substrate (DMSO alone). IC50 values and curves were calculated using Prism software package (GraphPad Software, san Diego Calif., USA).

[2] = Evaluation of pharmacokinetics in rats; assay type: in vivo; conditions: rat, plasma, male SD rats, single administration, groups 2 mg/kg intravenous and 10 mg/kg oral gavage, route for this parameter not stated
Experimental: Evaluation of Pharmacokinetics in Rats Male SD rats were used as test animals, after a single administration, the blood concentrations of the compounds were measured and the pharmacokinetic behavior was evaluated. Six healthy adult male SD rats (7-10 weeks of age, purchased from Shanghai Slack Experimental Animal Co., Ltd.) were randomly divided into two groups of three animals each, and one group was administered the test compound intravenously at 2 mg/kg, the other group was administered orally by gavage the test compound at 10 mg/kg. The vehicle in the intravenous administration group and the gastric administration group was both 10% DMSO+18% HP-β-CD+72% physiological saline. Blood samples were collected from the animals in the intravenous group at 0.0833, 0.25, 0.5, 1, 2, 4, 8, and 24 hours after the administration, and blood samples were collected from the animals in the gavage group at 0.25, 0.5, 1, 2, 4, 6, 8 and 24 hours after the administration. LCMS-MS method was used to determine the plasma drug concentration. WinNonlin™ version 6.3 (Pharsight Mountain View, Calif.) pharmacokinetic software was used to calculate the relevant pharmacokinetic parameters by non-compartment model logarithmic trapezoid method.

[3] = positive drugs: nintedanib 100 and 30 mg/kg/d-qd, pirfenidone 50 and 15 mg/kg/d-bid, oral gavage, 14 days, p<0.05

Chain of hERG potassium channel (Q12809 whole entry): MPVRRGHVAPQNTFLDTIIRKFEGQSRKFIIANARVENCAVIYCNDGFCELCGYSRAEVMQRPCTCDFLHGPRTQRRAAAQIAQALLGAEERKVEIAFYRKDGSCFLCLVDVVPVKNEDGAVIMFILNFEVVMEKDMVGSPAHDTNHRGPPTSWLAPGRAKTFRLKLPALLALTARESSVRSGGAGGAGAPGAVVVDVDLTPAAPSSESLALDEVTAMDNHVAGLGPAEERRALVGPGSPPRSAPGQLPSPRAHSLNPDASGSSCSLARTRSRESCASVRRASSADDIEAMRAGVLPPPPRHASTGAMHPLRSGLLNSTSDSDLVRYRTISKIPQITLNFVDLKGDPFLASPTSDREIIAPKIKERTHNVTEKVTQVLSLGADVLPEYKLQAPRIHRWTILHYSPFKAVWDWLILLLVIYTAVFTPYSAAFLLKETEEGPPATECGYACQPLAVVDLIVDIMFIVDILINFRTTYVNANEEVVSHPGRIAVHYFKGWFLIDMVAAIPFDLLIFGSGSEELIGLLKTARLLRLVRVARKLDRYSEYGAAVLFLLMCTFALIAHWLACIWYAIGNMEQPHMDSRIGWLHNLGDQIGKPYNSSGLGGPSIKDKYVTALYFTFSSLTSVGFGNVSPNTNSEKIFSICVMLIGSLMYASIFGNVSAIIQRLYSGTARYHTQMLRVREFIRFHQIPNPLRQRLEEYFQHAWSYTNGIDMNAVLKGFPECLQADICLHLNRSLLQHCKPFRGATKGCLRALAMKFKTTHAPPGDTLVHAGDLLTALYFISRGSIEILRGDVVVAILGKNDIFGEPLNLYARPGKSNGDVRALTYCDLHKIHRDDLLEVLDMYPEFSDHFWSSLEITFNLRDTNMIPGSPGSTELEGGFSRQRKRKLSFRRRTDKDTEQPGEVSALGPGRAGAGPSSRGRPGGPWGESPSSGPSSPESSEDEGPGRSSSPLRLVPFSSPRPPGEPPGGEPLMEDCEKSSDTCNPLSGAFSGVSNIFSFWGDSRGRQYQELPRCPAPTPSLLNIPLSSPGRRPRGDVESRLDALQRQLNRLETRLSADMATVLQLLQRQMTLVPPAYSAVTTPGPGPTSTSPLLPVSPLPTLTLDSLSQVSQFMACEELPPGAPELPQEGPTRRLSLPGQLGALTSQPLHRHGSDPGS

For `Cc1cncc2cccc(S(=O)(=O)N3C[C@@H]4CCN[C@@H]4C3)c12` [Embodiment 38 (WO2015/165341), reference compound], the pIC50 (hERG potassium channel) was 5.34.
For `O=S(=O)(c1cccc2cnccc12)N1CCCNCC1` [Fasudil, reference compound], the “Pulmonary fibrosis Ashcraft score vs. model group (FIG. 1)” value ([1]; oral, once a day at 25 mg/kg, 14 consecutive days, p<0.001) was “achieved the same effect as the positive drug in inhibiting pulmonary fibrosis”.
In the case of `O=S(=O)(c1cccc2cnccc12)N1CC2CCNC2C12CC2` (stereo not shown) [embodiment 1], the pIC50 (ROCK protein kinase) was 7.70.
In the case of `O=S(=O)(c1cccc2cncc(Cl)c12)N1CC2CCNC2C12CC2` (stereo not shown) [embodiment 2], the pIC50 (ROCK protein kinase) was 7.49.
For `O=S(=O)(c1cccc2cncc(F)c12)N1CC2CCNC2C12CC2` (stereo not shown) [embodiment 3], the pIC50 (ROCK protein kinase) was 7.03.
For `CC1C2NCCC2CN1S(=O)(=O)c1cccc2cncc(F)c12` (stereo not shown) [embodiment 6-1], the pIC50 (ROCK protein kinase) was 7.19.
`CC1C2NCCC2CN1S(=O)(=O)c1cccc2cncc(F)c12` (stereo not shown) [embodiment 6-2] gave a pIC50 (ROCK protein kinase) of 8.10.
For `CC1C2NCCC2CN1S(=O)(=O)c1cccc2cncc(F)c12` (stereo not shown) [embodiment 6], the “Percentage of pulmonary fibrosis score vs. model group (FIG. 2)” value (shortened to “Percentage”) ([1]; oral gavage, 14 days) was “significant statistical difference compared with the model group”, the “Lowest dose effective in inhibiting pulmonary fibrosis” value ([1]; administered continuously for two weeks) was ≤ 1 mg/kg BID and the “Pulmonary fibrosis-improving effect compared with reference drugs” value ([1]; compared with nintedanib, pirfenidone and fasudil) was “comparable to that of nintedanib, pirfenidone, and fasudil at lower doses”. For the same molecule, the “Pulmonary fibrosis Ashcraft score vs. model group (FIG. 1)” value ([1]; oral, once a day at 3 mg/kg, 14 days, consistent with the same dose twice daily) was “significant effect on inhibiting pulmonary fibrosis”, the “Pulmonary fibrosis Ashcraft score vs. model group (FIG. 1)” value ([1]; oral, twice a day at three doses (1, 3, 10 mg/kg/d-bid), 14 consecutive days, p<0.001) was “significant inhibition of pulmonary fibrosis” and the pIC50 (hERG potassium channel) was < 4.52. The clearance ([2]; read-out: Clearance rate (Cl)) was 43.8 mL/min/kg, the half-life ([2]; read-out: Half-life period (T1/2) (converted)) was 1.12 h and the pIC50 (ROCK protein kinase) was 7.92.
`CC1C2NCCC2CN1S(=O)(=O)c1cccc2cnccc12` (stereo not shown) [embodiment 7-1] gave a pIC50 (ROCK protein kinase) of 7.20.
`CC1C2NCCC2CN1S(=O)(=O)c1cccc2cnccc12` (stereo not shown) [embodiment 7-2] gave a pIC50 (ROCK protein kinase) of 7.82.
For `CC1C2NCCC2CN1S(=O)(=O)c1cccc2cnccc12` (stereo not shown) [embodiment 7], the pIC50 (ROCK protein kinase) was 7.55.
With `Cc1cncc2cccc(S(=O)(=O)N3CC4CCNC4C3C)c12` (stereo not shown) [embodiment 8] the pIC50 (ROCK protein kinase) was 7.74.
Molecule `CC1C2NCCC2CN1S(=O)(=O)c1cccc2c(O)ncc(F)c12` (stereo not shown) [embodiment 10] has a pIC50 (ROCK protein kinase) of 6.11.
In the case of `COC(=O)c1ccc2c(c1)NC(=O)/C2=C(\Nc1ccc(N(C)C(=O)CN2CCN(C)CC2)cc1)c1ccccc1` [nintedanib, reference compound], the “Percentage” value ([1]; oral gavage, 14 days) was “significant differences compared with the model group” and the “Pulmonary fibrosis Ashcraft score vs. model group (FIG. 1)” value [1, 3] was “significantly improved the degree of pulmonary fibrosis”.
In the case of `Cc1ccc(=O)n(-c2ccccc2)c1` [pirfenidone, reference compound], the “Percentage” value ([1]; oral gavage, 14 days) was “significant differences compared with the model group” and the “Pulmonary fibrosis Ashcraft score vs. model group (FIG. 1)” value [1, 3] was “significantly improved the degree of pulmonary fibrosis”.
